Data reported in PubChem BioAssay AID328 (DTP/NCI, 2004).
Where “and” joins values, the source holds several entries; their conditions need not be identical. Identical values can stand only once. Inconclusive results and toxic doses are left out.

Tested on: BDF1 mice, P388 leukemia ip, median survival T/C
Assay: NCI In Vivo Anticancer Drug Screen. Data for tumor model P388 Leukemia (intraperitoneal) in B6D2F1 (BDF1) mice
Conditions: endpoint: median survival time, higher = longer survival
Summary of the method: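 Vehicle-dosed animals serve as the reference; survival of compound-dosed, tumour-implanted mice is divided by it.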

[1] = dose: 6.25 mg/kg/injection, schedule: Q01DX009 (ip), vehicle: saline
[2] = dose: 25.0 mg/kg/injection, schedule: Q01DX009 (ip), vehicle: saline
[3] = dose: 100.0 mg/kg/injection, schedule: Q04DX003 (ip), vehicle: saline
[4] = dose: 200.0 mg/kg/injection, schedule: Q04DX003 (ip), vehicle: saline
[5] = dose: 50.0 mg/kg/injection, schedule: Q01DX009 (ip), vehicle: saline with Tween-80
[6] = dose: 100.0 mg/kg/injection, schedule: Q01DX009 (ip), vehicle: saline with Tween-80
[7] = dose: 200.0 mg/kg/injection, schedule: Q01DX009 (ip), vehicle: saline with Tween-80
[8] = dose: 50.0 mg/kg/injection, schedule: Q04DX003 (ip), vehicle: Klucel (hydroxypropylcellulose) (HPC)
[9] = dose: 100.0 mg/kg/injection, schedule: Q01DX009 (ip), vehicle: Klucel (hydroxypropylcellulose) (HPC)
[10] = dose: 100.0 mg/kg/injection, schedule: Q04DX003 (ip), vehicle: Klucel (hydroxypropylcellulose) (HPC)
[11] = dose: 200.0 mg/kg/injection, schedule: Q04DX003 (ip), vehicle: Klucel (hydroxypropylcellulose) (HPC)
[12] = dose: 50.0 mg/kg/injection, schedule: Q04DX003 (ip), vehicle: saline with Tween-80
[13] = dose: 100.0 mg/kg/injection, schedule: Q04DX003 (ip), vehicle: saline with Tween-80
[14] = dose: 200.0 mg/kg/injection, schedule: Q04DX003 (ip), vehicle: saline with Tween-80

SMILES: Cn1cnc([N+](=O)[O-])c1[Se]c1ncnc2c1ncn2C1OC(CO)C(O)C1O (centres undefined)
- T/C [1]: 105 % of control
- T/C (dose: 12.5 mg/kg/injection, schedule: Q01DX009 (ip), vehicle: saline): 113 % of control
- T/C (dose: 12.5 mg/kg/injection, schedule: Q04DX003 (ip), vehicle: saline): 113 % of control
- T/C [2]: 102 % of control
- T/C (dose: 25.0 mg/kg/injection, schedule: Q04DX003 (ip), vehicle: saline): 100 % of control and 104 % of control
- T/C (dose: 50.0 mg/kg/injection, schedule: Q04DX003 (ip), vehicle: saline): 100 % of control and 113 % of control
- T/C [3]: 100 % of control
- T/C [4]: 100 % of control

SMILES: NC(=O)OCC#CCCl
- T/C [5]: 100 % of control
- T/C [6]: 98 % of control
- T/C [7]: 96 % of control

SMILES: CN1CCC2=C(C1)C(c1ccccc1)c1ccccc12 (centres undefined)
- T/C [2]: 106 % of control

SMILES: O=C(c1ccc(Cl)cc1)c1cccc[n+]1Cc1ccccc1
- T/C (dose: 0.37 mg/kg/injection, schedule: Q01DX009 (ip), vehicle: Klucel (hydroxypropylcellulose) (HPC)): 100 % of control
- T/C (dose: 18.75 mg/kg/injection, schedule: Q01DX009 (ip), vehicle: Klucel (hydroxypropylcellulose) (HPC)): 104 % of control
- T/C (dose: 28.12 mg/kg/injection, schedule: Q04DX003 (ip), vehicle: Klucel (hydroxypropylcellulose) (HPC)): 100 % of control
- T/C (dose: 37.5 mg/kg/injection, schedule: Q01DX009 (ip), vehicle: Klucel (hydroxypropylcellulose) (HPC)): 109 % of control
- T/C (dose: 56.25 mg/kg/injection, schedule: Q04DX003 (ip), vehicle: Klucel (hydroxypropylcellulose) (HPC)): 95 % of control
- T/C (dose: 112.5 mg/kg/injection, schedule: Q04DX003 (ip), vehicle: Klucel (hydroxypropylcellulose) (HPC)): 100 % of control

SMILES: N#CC(=C1C=CC(=NO)C=C1)c1ccc(Cl)cc1
- T/C (dose: 25.0 mg/kg/injection, schedule: Q01DX009 (ip), vehicle: Klucel (hydroxypropylcellulose) (HPC)): 114 % of control
- T/C (dose: 25.0 mg/kg/injection, schedule: Q04DX003 (ip), vehicle: Klucel (hydroxypropylcellulose) (HPC)): 102 % of control
- T/C (dose: 50.0 mg/kg/injection, schedule: Q01DX009 (ip), vehicle: Klucel (hydroxypropylcellulose) (HPC)): 114 % of control
- T/C [8]: 98 % of control
- T/C [9]: 117 % of control
- T/C [10]: 110 % of control
- T/C [11]: 122 % of control
- T/C (dose: 400.0 mg/kg/injection, schedule: Q04DX003 (ip), vehicle: Klucel (hydroxypropylcellulose) (HPC)): 113 % of control

SMILES: CS(=O)(=O)CCN(N=O)C(=N)N[N+](=O)[O-]
- T/C (dose: 19.0 mg/kg/injection, schedule: Q04DX003 (ip), vehicle: saline with Tween-80): 113 % of control
- T/C (dose: 150.0 mg/kg/injection, schedule: Q04DX003 (ip), vehicle: saline with Tween-80): 150 % of control

SMILES: Cc1cc(N)no1
- T/C (dose: 100.0 mg/kg/injection, schedule: Q01DX009 (ip), vehicle: saline): 92 % of control
- T/C [3]: 104 % of control
- T/C (dose: 200.0 mg/kg/injection, schedule: Q01DX009 (ip), vehicle: saline): 96 % of control
- T/C [4]: 95 % of control
- T/C (dose: 400.0 mg/kg/injection, schedule: Q01DX009 (ip), vehicle: saline): 92 % of control
- T/C (dose: 400.0 mg/kg/injection, schedule: Q04DX003 (ip), vehicle: saline): 100 % of control

SMILES: O=NN(CS(=O)(=O)O)c1ccccc1
- T/C (dose: 50.0 mg/kg/injection, schedule: Q01DX001 (ip), vehicle: saline with Tween-80): 104 % of control
- T/C [8]: 104 % of control
- T/C (dose: 100.0 mg/kg/injection, schedule: Q01DX001 (ip), vehicle: saline with Tween-80): 104 % of control
- T/C [9]: 104 % of control
- T/C [10]: 113 % of control
- T/C (dose: 200.0 mg/kg/injection, schedule: Q01DX001 (ip), vehicle: saline with Tween-80): 122 % of control
- T/C (dose: 200.0 mg/kg/injection, schedule: Q01DX009 (ip), vehicle: Klucel (hydroxypropylcellulose) (HPC)): 108 % of control
- T/C [11]: 109 % of control

SMILES: O=C(COc1ccc(Cl)cc1)C1CSc2ccc3ccccc3c21 (centres undefined)
- T/C (dose: 100.0 mg/kg/injection, schedule: Q04DX003 (ip), vehicle: saline sonified): 95 % of control
- T/C (dose: 200.0 mg/kg/injection, schedule: Q04DX003 (ip), vehicle: saline sonified): 90 % of control
- T/C (dose: 400.0 mg/kg/injection, schedule: Q04DX003 (ip), vehicle: saline sonified): 95 % of control

SMILES: O=C1C(c2ccccc2)=C(c2ccccc2)C(c2ccccc2)=C1c1ccccc1
- T/C (dose: 0.78 mg/kg/injection, schedule: Q04DX003 (ip), vehicle: water): 88 % of control
- T/C (dose: 1.56 mg/kg/injection, schedule: Q01DX009 (ip), vehicle: water): 103 % of control
- T/C (dose: 1.56 mg/kg/injection, schedule: Q04DX003 (ip), vehicle: water): 95 % of control
- T/C (dose: 3.12 mg/kg/injection, schedule: Q01DX009 (ip), vehicle: water): 94 % of control
- T/C (dose: 3.12 mg/kg/injection, schedule: Q04DX003 (ip), vehicle: water): 88 % of control
- T/C (dose: 6.25 mg/kg/injection, schedule: Q01DX009 (ip), vehicle: water): 97 % of control
- T/C (dose: 6.25 mg/kg/injection, schedule: Q04DX003 (ip), vehicle: water): 106 % of control
- T/C (dose: 12.5 mg/kg/injection, schedule: Q01DX009 (ip), vehicle: water): 94 % of control
- T/C (dose: 12.5 mg/kg/injection, schedule: Q04DX003 (ip), vehicle: water): 100 % of control
- T/C (dose: 25.0 mg/kg/injection, schedule: Q01DX009 (ip), vehicle: water): 97 % of control
- T/C (dose: 50.0 mg/kg/injection, schedule: Q01DX009 (ip), vehicle: water): 97 % of control
- T/C (dose: 100.0 mg/kg/injection, schedule: Q01DX009 (ip), vehicle: water): 101 % of control
- T/C (dose: 200.0 mg/kg/injection, schedule: Q01DX009 (ip), vehicle: water): 91 % of control
- T/C (dose: 400.0 mg/kg/injection, schedule: Q01DX009 (ip), vehicle: water): 87 % of control

SMILES: CN(C)c1ccc(C(=O)NN)cc1
- T/C (dose: 6.25 mg/kg/injection, schedule: Q01DX009 (ip), vehicle: saline with Tween-80): 91 % of control
- T/C (dose: 12.5 mg/kg/injection, schedule: Q01DX009 (ip), vehicle: saline with Tween-80): 91 % of control
- T/C (dose: 25.0 mg/kg/injection, schedule: Q01DX009 (ip), vehicle: saline with Tween-80): 122 % of control
- T/C (dose: 25.0 mg/kg/injection, schedule: Q04DX003 (ip), vehicle: saline with Tween-80): 100 % of control
- T/C [5]: 115 % of control
- T/C [12]: 98 % of control
- T/C [6]: 121 % of control
- T/C [13]: 107 % of control
- T/C [7]: 100 % of control
- T/C [14]: 109 % of control
- T/C (dose: 300.0 mg/kg/injection, schedule: Q01DX009 (ip), vehicle: saline with Tween-80): 106 % of control

SMILES: CCCCCCCCCCCCCCCCCC[N+](C)(C)C
- T/C (dose: 1.56 mg/kg/injection, schedule: Q04DX003 (ip), vehicle: saline): 115 % of control
- T/C (dose: 3.12 mg/kg/injection, schedule: Q04DX003 (ip), vehicle: saline): 115 % of control
- T/C (dose: 4.12 mg/kg/injection, schedule: Q01DX009 (ip), vehicle: saline): 115 % of control
- T/C [1]: 90 % of control
- T/C (dose: 6.25 mg/kg/injection, schedule: Q04DX003 (ip), vehicle: saline): 120 % of control
- T/C (dose: 9.2 mg/kg/injection, schedule: Q04DX003 (ip), vehicle: saline): 104 % of control
- T/C (dose: 14.0 mg/kg/injection, schedule: Q04DX003 (ip), vehicle: saline): 100 % of control
- T/C (dose: 21.0 mg/kg/injection, schedule: Q04DX003 (ip), vehicle: saline): 90 % of control

SMILES: S=C(S)Nc1cccc2ccccc12
- T/C [6]: 100 % of control
- T/C [13]: 90 % of control
- T/C [7]: 100 % of control
- T/C [14]: 109 % of control
- T/C (dose: 400.0 mg/kg/injection, schedule: Q01DX009 (ip), vehicle: saline with Tween-80): 105 % of control
- T/C (dose: 400.0 mg/kg/injection, schedule: Q04DX003 (ip), vehicle: saline with Tween-80): 95 % of control

SMILES: O=[N+]([O-])c1ccc(Sc2ccc([N+](=O)[O-])cc2)cc1
- T/C [5]: 90 % of control
- T/C [12]: 100 % of control
- T/C [6]: 95 % of control
- T/C [7]: 90 % of control
- T/C [14]: 100 % of control
